Species: Rattus norvegicus
Assay: Open TG-GATES - Regimen: Daily Repeat
Type: toxicity, organism-based, Sprague-Dawley
Parameters: regimen Daily Repeat, gender Male, age 6 weeks
Settings: in vivo, po, 10 mg/kg, route gavage, dose level Middle; for APTT / Bas / Eos / Fbg / Hb / Ht / Lym / MCH / MCHC / MCV / Mono / Neu / PT / Plat / RBC / Ret / WBC: tissue Blood; for KIDNEY_L / KIDNEY_R / KIDNEY_TOTAL: tissue Kidney; for LIVER: tissue Liver; for A/G / ALP / ALT / AST / BUN / CRE / Ca / Cl / DBIL / GLC / IP / K / LDH / Na / PL / RALB / TBIL / TC / TG / TP / gamma-GTP: tissue Plasma

With `CN(C)CCC(c1ccc(Cl)cc1)c1ccccn1` (configuration not stated) [CHLORPHENIRAMINE] the TERMINAL_BW (72 h, time 3 day) was 226.7 g, the APTT (72 h, time 3 day) was 18.1 s and the Bas (72 h, time 3 day) was 0%. The Eos (72 h, time 3 day) was 1.2%, the Fbg (72 h, time 3 day) was 297.4 mg/dL and the Hb (72 h, time 3 day) was 13.1 g/dL. It also gave a Ht (72 h, time 3 day) of 40.4%, a Lym (72 h, time 3 day) of 77.4% and an MCH (72 h, time 3 day) of 20.7 pg. The MCHC (72 h, time 3 day) was 32.3%, the MCV (72 h, time 3 day) was 63.9 fL and the Mono (72 h, time 3 day) was 2.6%. It also gave a Neu (72 h, time 3 day) of 18.6%, a PT (72 h, time 3 day) of 14.8 s and a Plat (72 h, time 3 day) of 123.1 x10_4/uL. For the same molecule, the RBC (72 h, time 3 day) was 631.8 x10_4/ul, the Ret (72 h, time 3 day) was 6.1% and the WBC (72 h, time 3 day) was 88.3 x10_2/uL. For the same molecule, the KIDNEY_L (72 h, time 3 day) was 1 g, the KIDNEY_R (72 h, time 3 day) was 0.9 g and the KIDNEY_TOTAL (72 h, time 3 day) was 1.9 g. It also gave an LIVER (72 h, time 3 day) of 10.2 g, an A/G (72 h, time 3 day) of 0.9 and an ALP (72 h, time 3 day) of 1653.8 IU/L. The ALT (72 h, time 3 day) was 38.8 IU/L, the AST (72 h, time 3 day) was 67.8 IU/L and the BUN (72 h, time 3 day) was 14.4 mg/dL. It also gave a CRE (72 h, time 3 day) of 0.2 mg/dL, a Ca (72 h, time 3 day) of 10.4 mg/dL and a Cl (72 h, time 3 day) of 107.2 meq/L. It also gave a DBIL (72 h, time 3 day) of 0.016 mg/dL, a GLC (72 h, time 3 day) of 184.6 mg/dL and an IP (72 h, time 3 day) of 7.4 mg/dL. It also gave a K (72 h, time 3 day) of 4.5 meq/L, an LDH (72 h, time 3 day) of 94.6 IU/L and a Na (72 h, time 3 day) of 141.6 meq/L. It also gave a PL (72 h, time 3 day) of 147.8 mg/dL, an RALB (72 h, time 3 day) of 2.6 g/dL and a TBIL (72 h, time 3 day) of 0.038 mg/dL. The TC (72 h, time 3 day) was 82 mg/dL, the TG (72 h, time 3 day) was 76.2 mg/dL and the TP (72 h, time 3 day) was 5.6 g/dL. For the same molecule, the gamma-GTP (72 h, time 3 day) was 1.4 IU/L, the TERMINAL_BW ([…], time 7 day) was 266.4 g and the TERMINAL_BW ([…], time 14 day) was 329 g. It also gave a TERMINAL_BW ([…], time 28 day) of 411.3 g, an APTT ([…], time 7 day) of 22.1 s and a Bas ([…], time 7 day) of 0%. It also gave an Eos ([…], time 7 day) of 0.8%, a Fbg ([…], time 7 day) of 297.2 mg/dL and a Hb ([…], time 7 day) of 13.6 g/dL. It also gave a Ht ([…], time 7 day) of 41%, a Lym ([…], time 7 day) of 77% and an MCH ([…], time 7 day) of 20.8 pg. The MCHC ([…], time 7 day) was 33%, the MCV ([…], time 7 day) was 63.1 fL and the Mono ([…], time 7 day) was 2.2%. The Neu ([…], time 7 day) was 19.2%, the PT ([…], time 7 day) was 14.1 s and the Plat ([…], time 7 day) was 110 x10_4/uL. The RBC ([…], time 7 day) was 650.4 x10_4/ul, the Ret ([…], time 7 day) was 5.7% and the WBC ([…], time 7 day) was 82.7 x10_2/uL. The APTT ([…], time 14 day) was 16.1 s, the Bas ([…], time 14 day) was 0.2% and the Eos ([…], time 14 day) was 0.4%. The Fbg ([…], time 14 day) was 365 mg/dL, the Hb ([…], time 14 day) was 14 g/dL and the Ht ([…], time 14 day) was 42.2%. For the same molecule, the Lym ([…], time 14 day) was 73.6%, the MCH ([…], time 14 day) was 20.3 pg and the MCHC ([…], time 14 day) was 33.1%. It also gave an MCV ([…], time 14 day) of 61.3 fL, a Mono ([…], time 14 day) of 3.4% and a Neu ([…], time 14 day) of 19.8%. It also gave a PT ([…], time 14 day) of 14.4 s, a Plat ([…], time 14 day) of 118 x10_4/uL and an RBC ([…], time 14 day) of 687.8 x10_4/ul. It also gave a Ret ([…], time 14 day) of 4.6%, a WBC ([…], time 14 day) of 91.1 x10_2/uL and an APTT ([…], time 28 day) of 18.2 s. It also gave a Bas ([…], time 28 day) of 0%, an Eos ([…], time 28 day) of 1% and a Fbg ([…], time 28 day) of 267.8 mg/dL. It also gave a Hb ([…], time 28 day) of 15.2 g/dL, a Ht ([…], time 28 day) of 45.1% and a Lym ([…], time 28 day) of 78.8%. For the same molecule, the MCH ([…], time 28 day) was 18.9 pg, the MCHC ([…], time 28 day) was 33.8% and the MCV ([…], time 28 day) was 56 fL. The Mono ([…], time 28 day) was 2.2%, the Neu ([…], time 28 day) was 17.4% and the PT ([…], time 28 day) was 15.2 s. The Plat ([…], time 28 day) was 106.7 x10_4/uL, the RBC ([…], time 28 day) was 806.2 x10_4/ul and the Ret ([…], time 28 day) was 2.2%. For the same molecule, the WBC ([…], time 28 day) was 92.2 x10_2/uL, the KIDNEY_L ([…], time 7 day) was 1.1 g and the KIDNEY_R ([…], time 7 day) was 1.1 g. For the same molecule, the KIDNEY_TOTAL ([…], time 7 day) was 2.2 g, the KIDNEY_L ([…], time 14 day) was 1.3 g and the KIDNEY_R ([…], time 14 day) was 1.2 g. For the same molecule, the KIDNEY_TOTAL ([…], time 14 day) was 2.5 g, the KIDNEY_L ([…], time 28 day) was 1.5 g and the KIDNEY_R ([…], time 28 day) was 1.4 g. For the same molecule, the KIDNEY_TOTAL ([…], time 28 day) was 2.9 g, the LIVER ([…], time 7 day) was 12.1 g and the LIVER ([…], time 14 day) was 14.6 g. The LIVER ([…], time 28 day) was 16.2 g, the A/G ([…], time 7 day) was 0.8 and the ALP ([…], time 7 day) was 1451.2 IU/L. It also gave an ALT ([…], time 7 day) of 40.6 IU/L, an AST ([…], time 7 day) of 64.4 IU/L and a BUN ([…], time 7 day) of 15.8 mg/dL. The CRE ([…], time 7 day) was 0.2 mg/dL, the Ca ([…], time 7 day) was 11.4 mg/dL and the Cl ([…], time 7 day) was 105.8 meq/L. For the same molecule, the DBIL ([…], time 7 day) was 0.012 mg/dL, the GLC ([…], time 7 day) was 194.4 mg/dL and the IP ([…], time 7 day) was 7.6 mg/dL. It also gave a K ([…], time 7 day) of 4.2 meq/L, an LDH ([…], time 7 day) of 96.6 IU/L and a Na ([…], time 7 day) of 142.6 meq/L. For the same molecule, the PL ([…], time 7 day) was 158.4 mg/dL, the RALB ([…], time 7 day) was 2.6 g/dL and the TBIL ([…], time 7 day) was 0.028 mg/dL. For the same molecule, the TC ([…], time 7 day) was 84.8 mg/dL, the TG ([…], time 7 day) was 98 mg/dL and the TP ([…], time 7 day) was 5.8 g/dL. The gamma-GTP ([…], time 7 day) was 1 IU/L, the A/G ([…], time 14 day) was 0.8 and the ALP ([…], time 14 day) was 1493.6 IU/L. For the same molecule, the ALT ([…], time 14 day) was 41.6 IU/L, the AST ([…], time 14 day) was 64 IU/L and the BUN ([…], time 14 day) was 15.8 mg/dL. For the same molecule, the CRE ([…], time 14 day) was 0.2 mg/dL, the Ca ([…], time 14 day) was 11.2 mg/dL and the Cl ([…], time 14 day) was 105.4 meq/L. The DBIL ([…], time 14 day) was 0.016 mg/dL, the GLC ([…], time 14 day) was 199.6 mg/dL and the IP ([…], time 14 day) was 7.8 mg/dL. It also gave a K ([…], time 14 day) of 4 meq/L, an LDH ([…], time 14 day) of 103 IU/L and a Na ([…], time 14 day) of 144 meq/L. The PL ([…], time 14 day) was 152.2 mg/dL, the RALB ([…], time 14 day) was 2.8 g/dL and the TBIL ([…], time 14 day) was 0.034 mg/dL. It also gave a TC ([…], time 14 day) of 78.2 mg/dL, a TG ([…], time 14 day) of 116.2 mg/dL and a TP ([…], time 14 day) of 6 g/dL. For the same molecule, the gamma-GTP ([…], time 14 day) was 1 IU/L, the A/G ([…], time 28 day) was 0.8 and the ALP ([…], time 28 day) was 1476.8 IU/L. For the same molecule, the ALT ([…], time 28 day) was 39 IU/L, the AST ([…], time 28 day) was 67 IU/L and the BUN ([…], time 28 day) was 16.8 mg/dL. The CRE ([…], time 28 day) was 0.2 mg/dL, the Ca ([…], time 28 day) was 10.5 mg/dL and the Cl ([…], time 28 day) was 107.2 meq/L. The DBIL ([…], time 28 day) was 0.016 mg/dL, the GLC ([…], time 28 day) was 193.4 mg/dL and the IP ([…], time 28 day) was 6.2 mg/dL. The K ([…], time 28 day) was 4.1 meq/L, the LDH ([…], time 28 day) was 87.2 IU/L and the Na ([…], time 28 day) was 144.2 meq/L. For the same molecule, the PL ([…], time 28 day) was 141 mg/dL, the RALB ([…], time 28 day) was 2.7 g/dL and the TBIL ([…], time 28 day) was 0.03 mg/dL. For the same molecule, the TC ([…], time 28 day) was 65.6 mg/dL, the TG ([…], time 28 day) was 136.6 mg/dL and the TP ([…], time 28 day) was 6 g/dL. For the same molecule, the gamma-GTP ([…], time 28 day) was 1 IU/L.
